In PubChem BioAssay (NCI):
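48-hour exposure; five concentrations; linearly interpolated endpoints. TGI: total growth inhibition.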

How the values were obtained:
Experiment in all cases: growth of human tumour cells (NCI), 48 h
MOLT-4 leukemia = test system: MOLT-4 leukemia
HCT-116 colon = test system: HCT-116 colon
NCI-H226 lung = test system: NCI-H226 lung
NCI-H460 lung = test system: NCI-H460 lung
OVCAR-4 ovarian = test system: OVCAR-4 ovarian
SF-268 CNS = test system: SF-268 CNS
HOP-92 NSCLC = test system: HOP-92 NSCLC
SNB-78 CNS = test system: SNB-78 CNS
CCRF-CEM leukemia = test system: CCRF-CEM leukemia
DMS 273 small cell lung = test system: DMS 273 small cell lung
HCC-2998 colon = test system: HCC-2998 colon
SR leukemia = test system: SR leukemia
LXFL 529 NSCLC = test system: LXFL 529 NSCLC
OVCAR-3 ovarian = test system: OVCAR-3 ovarian
SK-MEL-28 melanoma = test system: SK-MEL-28 melanoma
SK-MEL-5 melanoma = test system: SK-MEL-5 melanoma
M19-MEL melanoma = test system: M19-MEL melanoma
ACHN renal = test system: ACHN renal
RPMI-8226 leukemia = test system: RPMI-8226 leukemia
MALME-3M melanoma = test system: MALME-3M melanoma
HCT-15 colon = test system: HCT-15 colon
UACC-257 melanoma = test system: UACC-257 melanoma
EKVX NSCLC = test system: EKVX NSCLC
KM20L2 colon = test system: KM20L2 colon
A498 renal = test system: A498 renal
K-562 leukemia = test system: K-562 leukemia
U251 CNS = test system: U251 CNS
LOX IMVI melanoma = test system: LOX IMVI melanoma
HOP-18 NSCLC = test system: HOP-18 NSCLC
SK-OV-3 ovarian = test system: SK-OV-3 ovarian
COLO 205 colon = test system: COLO 205 colon
M14 melanoma = test system: M14 melanoma
786-0 renal = test system: 786-0 renal
NCI-H23 lung = test system: NCI-H23 lung
UO-31 renal = test system: UO-31 renal
CAKI-1 renal = test system: CAKI-1 renal
HL-60(TB) leukemia = test system: HL-60(TB) leukemia
IGROV1 ovarian = test system: IGROV1 ovarian
A549 NSCLC = test system: A549 NSCLC
HOP-62 NSCLC = test system: HOP-62 NSCLC
RXF 393 renal = test system: RXF 393 renal
SK-MEL-2 melanoma = test system: SK-MEL-2 melanoma
NCI-H522 lung = test system: NCI-H522 lung
SNB-75 CNS = test system: SNB-75 CNS
SNB-19 CNS = test system: SNB-19 CNS
OVCAR-8 ovarian = test system: OVCAR-8 ovarian
KM12 colon = test system: KM12 colon
SF-539 CNS = test system: SF-539 CNS
TK-10 renal = test system: TK-10 renal
SW-620 colon = test system: SW-620 colon
OVCAR-5 ovarian = test system: OVCAR-5 ovarian
SN12C renal = test system: SN12C renal
HT29 colon = test system: HT29 colon
UACC-62 melanoma = test system: UACC-62 melanoma
SF-295 CNS = test system: SF-295 CNS
DLD-1 colon = test system: DLD-1 colon
DMS 114 small cell lung = test system: DMS 114 small cell lung

Compound: COc1ccc2c(c1)[n+](=O)c(C(=O)CC(=O)C(=O)Nc1cccc(Cl)c1C)c(C)n2[O-]
- TGI (MOLT-4 leukemia): > 100 µM
- TGI (HCT-116 colon): > 100 µM
- TGI (NCI-H226 lung): > 100 µM
- TGI (NCI-H460 lung): > 100 µM
- TGI (OVCAR-4 ovarian): > 100 µM
- TGI (SF-268 CNS): > 100 µM
- TGI (HOP-92 NSCLC): > 100 µM
- TGI (SNB-78 CNS): > 100 µM
- TGI (CCRF-CEM leukemia): 71.2 µM
- TGI (DMS 273 small cell lung): > 100 µM
- TGI (HCC-2998 colon): > 100 µM
- TGI (SR leukemia): > 100 µM
- TGI (LXFL 529 NSCLC): > 100 µM
- TGI (OVCAR-3 ovarian): 94.7 µM
- TGI (SK-MEL-28 melanoma): > 100 µM
- TGI (SK-MEL-5 melanoma): > 100 µM
- TGI (M19-MEL melanoma): > 100 µM
- TGI (ACHN renal): > 100 µM
- TGI (RPMI-8226 leukemia): > 100 µM
- TGI (MALME-3M melanoma): > 100 µM
- TGI (HCT-15 colon): > 100 µM
- TGI (UACC-257 melanoma): > 100 µM
- TGI (EKVX NSCLC): > 100 µM
- TGI (KM20L2 colon): > 100 µM
- TGI (A498 renal): > 100 µM
- TGI (K-562 leukemia): > 100 µM
- TGI (U251 CNS): > 100 µM
- TGI (LOX IMVI melanoma): > 100 µM
- TGI (HOP-18 NSCLC): > 100 µM
- TGI (SK-OV-3 ovarian): > 100 µM
- TGI (COLO 205 colon): > 100 µM
- TGI (M14 melanoma): > 100 µM
- TGI (786-0 renal): > 100 µM
- TGI (NCI-H23 lung): > 100 µM
- TGI (UO-31 renal): > 100 µM
- TGI (CAKI-1 renal): > 100 µM
- TGI (HL-60(TB) leukemia): > 100 µM
- TGI (IGROV1 ovarian): > 100 µM
- TGI (A549 NSCLC): > 100 µM
- TGI (HOP-62 NSCLC): > 100 µM
- TGI (RXF 393 renal): > 100 µM
- TGI (SK-MEL-2 melanoma): > 100 µM
- TGI (NCI-H522 lung): 58 µM
- TGI (SNB-75 CNS): > 100 µM
- TGI (SNB-19 CNS): > 100 µM
- TGI (OVCAR-8 ovarian): > 100 µM
- TGI (KM12 colon): > 100 µM
- TGI (SF-539 CNS): > 100 µM
- TGI (TK-10 renal): > 100 µM
- TGI (SW-620 colon): > 100 µM
- TGI (OVCAR-5 ovarian): > 100 µM
- TGI (SN12C renal): > 100 µM
- TGI (HT29 colon): > 100 µM
- TGI (UACC-62 melanoma): > 100 µM
- TGI (SF-295 CNS): > 100 µM

Compound: O=[N+]([O-])c1ccc(C2CC(c3ccc(NCc4nc5ccccc5[nH]4)cc3)=NO2)cc1 (configuration not stated)
- TGI (MOLT-4 leukemia): > 100 µM
- TGI (HCT-116 colon): > 100 µM
- TGI (NCI-H460 lung): > 100 µM
- TGI (OVCAR-4 ovarian): > 100 µM
- TGI (SF-268 CNS): > 100 µM
- TGI (HOP-92 NSCLC): > 100 µM
- TGI (CCRF-CEM leukemia): > 100 µM
- TGI (DMS 273 small cell lung): > 100 µM
- TGI (HCC-2998 colon): > 100 µM
- TGI (SR leukemia): > 100 µM
- TGI (LXFL 529 NSCLC): 97.9 µM
- TGI (OVCAR-3 ovarian): 57.4 µM
- TGI (SK-MEL-28 melanoma): > 100 µM
- TGI (SK-MEL-5 melanoma): 32.5 µM
- TGI (M19-MEL melanoma): > 100 µM
- TGI (ACHN renal): > 100 µM
- TGI (RPMI-8226 leukemia): > 100 µM
- TGI (DLD-1 colon): > 100 µM
- TGI (MALME-3M melanoma): > 100 µM
- TGI (HCT-15 colon): > 100 µM
- TGI (DMS 114 small cell lung): > 100 µM
- TGI (A498 renal): 73.5 µM
- TGI (K-562 leukemia): > 100 µM
- TGI (U251 CNS): > 100 µM
- TGI (LOX IMVI melanoma): > 100 µM
- TGI (HOP-18 NSCLC): > 100 µM
- TGI (SK-OV-3 ovarian): > 100 µM
- TGI (COLO 205 colon): > 100 µM
- TGI (M14 melanoma): > 100 µM
- TGI (786-0 renal): > 100 µM
- TGI (NCI-H23 lung): > 100 µM
- TGI (UO-31 renal): > 100 µM
- TGI (CAKI-1 renal): > 100 µM
- TGI (HL-60(TB) leukemia): > 100 µM
- TGI (IGROV1 ovarian): > 100 µM
- TGI (A549 NSCLC): > 100 µM
- TGI (HOP-62 NSCLC): > 100 µM
- TGI (RXF 393 renal): > 100 µM
- TGI (SK-MEL-2 melanoma): > 100 µM
- TGI (NCI-H522 lung): > 100 µM
- TGI (SNB-75 CNS): > 100 µM
- TGI (SNB-19 CNS): > 100 µM
- TGI (OVCAR-8 ovarian): > 100 µM
- TGI (KM12 colon): > 100 µM
- TGI (SF-539 CNS): > 100 µM
- TGI (TK-10 renal): > 100 µM
- TGI (SW-620 colon): > 100 µM
- TGI (OVCAR-5 ovarian): > 100 µM
- TGI (SN12C renal): > 100 µM
- TGI (HT29 colon): > 100 µM
- TGI (UACC-62 melanoma): > 100 µM
- TGI (SF-295 CNS): > 100 µM
